Data from patent US20210198277A1, “AMINE-SUBSTITUTED ARYL OR HETEROARYL COMPOUNDS” (Epizyme, Inc., priority 2016, published 2021).

What was measured:
[1] = biological target: T1, EHMT1 (Homo sapiens, UniProt Q9H9B1); experiment: EHMT1 enzyme assay on peptide substrate (EHMT1 PEP); type: biochemical; conditions: Table II; read-out: EHMT1 PEP (IC50 μM)
T1 sequence (Q9H9B1 1-1298): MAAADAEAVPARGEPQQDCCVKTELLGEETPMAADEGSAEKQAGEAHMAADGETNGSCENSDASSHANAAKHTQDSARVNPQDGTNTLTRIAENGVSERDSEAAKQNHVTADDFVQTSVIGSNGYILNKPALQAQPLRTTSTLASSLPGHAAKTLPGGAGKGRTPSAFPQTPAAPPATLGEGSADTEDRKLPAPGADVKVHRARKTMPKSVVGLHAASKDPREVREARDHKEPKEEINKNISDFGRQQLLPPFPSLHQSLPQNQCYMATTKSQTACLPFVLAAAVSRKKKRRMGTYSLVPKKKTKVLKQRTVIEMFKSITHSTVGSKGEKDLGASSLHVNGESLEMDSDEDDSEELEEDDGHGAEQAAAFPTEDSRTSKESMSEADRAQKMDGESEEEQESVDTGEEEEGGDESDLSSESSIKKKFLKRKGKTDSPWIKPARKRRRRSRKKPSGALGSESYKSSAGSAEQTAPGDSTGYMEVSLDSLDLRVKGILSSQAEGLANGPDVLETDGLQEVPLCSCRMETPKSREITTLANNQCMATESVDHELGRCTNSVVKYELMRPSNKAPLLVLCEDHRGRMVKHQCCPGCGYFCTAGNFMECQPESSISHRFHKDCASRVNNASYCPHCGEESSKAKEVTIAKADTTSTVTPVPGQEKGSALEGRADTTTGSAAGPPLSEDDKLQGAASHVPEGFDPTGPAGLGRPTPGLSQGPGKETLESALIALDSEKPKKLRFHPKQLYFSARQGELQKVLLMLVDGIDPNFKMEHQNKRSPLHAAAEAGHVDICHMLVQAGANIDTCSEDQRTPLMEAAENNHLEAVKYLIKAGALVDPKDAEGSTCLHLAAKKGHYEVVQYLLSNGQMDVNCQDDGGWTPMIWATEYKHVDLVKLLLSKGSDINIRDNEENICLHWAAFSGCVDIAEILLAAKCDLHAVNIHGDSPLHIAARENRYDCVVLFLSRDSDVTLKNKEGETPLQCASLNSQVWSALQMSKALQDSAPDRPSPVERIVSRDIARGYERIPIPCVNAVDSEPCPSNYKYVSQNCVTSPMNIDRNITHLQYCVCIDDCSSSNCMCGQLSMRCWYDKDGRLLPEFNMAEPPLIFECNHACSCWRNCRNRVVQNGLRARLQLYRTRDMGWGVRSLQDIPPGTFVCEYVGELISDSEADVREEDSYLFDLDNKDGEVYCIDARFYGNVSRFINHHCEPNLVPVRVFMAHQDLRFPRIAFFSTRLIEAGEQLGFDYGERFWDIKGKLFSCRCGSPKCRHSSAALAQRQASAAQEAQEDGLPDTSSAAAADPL

[2] = biological target: T2, human EHMT2 913-1193 (Homo sapiens, UniProt Q96KQ7); experiment: EHMT2 enzyme assay on histone peptide substrate (EHMT2 PEP); type: biochemical; conditions: Table II; read-out: EHMT2 PEP (IC50 μM)
T2 construct: recombinant purified human EHMT2 913-1193, Viva; purchased Viva
T2 sequence (Q96KQ7 913-1193): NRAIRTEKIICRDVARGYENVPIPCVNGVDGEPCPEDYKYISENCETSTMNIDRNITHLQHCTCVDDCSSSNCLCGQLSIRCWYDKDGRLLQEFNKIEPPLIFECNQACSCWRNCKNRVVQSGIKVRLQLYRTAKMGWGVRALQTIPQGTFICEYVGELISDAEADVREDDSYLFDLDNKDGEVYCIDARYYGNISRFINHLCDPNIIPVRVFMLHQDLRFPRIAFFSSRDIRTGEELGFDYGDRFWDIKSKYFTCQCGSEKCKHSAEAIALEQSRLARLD
Procedure, shortened: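 Compounds (10-point, 3-fold dilutions, top 50 μM final, 2% DMSO) preincubated 30 min with 0.031 nM EHMT2 in 20 mM Bicine pH 7.5, 0.002% Tween 20, 0.005% gelatin, 1 mM TCEP. Biotinylated histone peptide methylated with ^3H-SAM 60 min at room temperature. Quenched with unlabeled SAM; product captured on streptavidin Flashplate, scintillation counted.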

SMILES	IC50 [1] [µM]	IC50 [2] [µM]
COc1ccc(Nc2nccc(N3CCc4nc[nH]c(=O)c4C3)n2)cc1OCCCN1CCCC1 [Compound 134]	> 10	> 10
COc1ccc(Nc2nccc(N(C)Cc3cccnc3)n2)cc1OCCCN1CCCC1 [Compound 135]	1 to 10	1 to 10
COc1ccc(Nc2nccc(N(C)Cc3ccccn3)n2)cc1OCCCN1CCCC1 [Compound 136]	1 to 10	1 to 10
COc1ccc(Nc2nccc(NC3COC3)n2)cc1OCCCN1CCCC1 [Compound 137]	1 to 10	1 to 10
COc1ccc(Nc2nccc(N3CCCN(C(C)=O)CC3)n2)cc1OCCCN1CCCC1 [Compound 138]	> 10	1 to 10
COc1ccc(Nc2nccc(N3CCN(C(C)=O)CC3)n2)cc1OCCCN1CCCC1 [Compound 139]	> 10	> 10
COc1ccc(Nc2nccc(N(C)CCCO)n2)cc1OCCCN1CCCC1 [Compound 140]	1 to 10	1 to 10
COc1ccc(Nc2nccc(N3CCC(C)(O)CC3)n2)cc1OCCCN1CCCC1 [Compound 141]	> 10	> 10
COc1ccc(Nc2nccc(N(C)C3CCOCC3)n2)cc1OCCCN1CCCC1 [Compound 142]	1 to 10	1 to 10
COCCCN(C)c1ccnc(Nc2ccc(OC)c(OCCCN3CCCC3)c2)n1 [Compound 143]	1 to 10	1 to 10
COc1ccc(Nc2nccc(CNC(C)=O)n2)cc1OCCCN1CCCC1 [Compound 144]	> 10	> 10
CC(=O)N1CCC(CNc2ccnc(Nc3ccc(C)c(OCCCN4CCCC4)c3)n2)CC1 [Compound 145]	1 to 10	1 to 10
COc1ccc(Nc2nccc(N(C)CC3CCOCC3)n2)cc1OCCCN1CCCC1 [Compound 146]	> 10	> 10
COc1ccc(Nc2nccc(N3CCC(C(C)(C)O)CC3)n2)cc1OCCCN1CCCC1 [Compound 147]	1 to 10	1 to 10
COc1ccc(Nc2nccc(N3CCC(O)CC3)n2)cc1OCCCN1CCCC1 [Compound 148]	> 10	1 to 10
COc1ccc(Nc2nccc(N3CCC(OC)CC3)n2)cc1OCCCN1CCCC1 [Compound 149]	> 10	> 10
COc1ccc(Nc2nccc(N(C)CCO)n2)cc1OCCCN1CCCC1 [Compound 150]	1 to 10	0.1 to 1
COc1ccc(Nc2nccc(N3CCCOCC3)n2)cc1OCCCN1CCCC1 [Compound 151]	> 10	> 10
COc1ccc(Nc2nccc(NC3CCS(=O)(=O)CC3)n2)cc1OCCCN1CCCC1 [Compound 152]	1 to 10	1 to 10
COc1ccc(Nc2nccc(N3CCC(C(N)=O)CC3)n2)cc1OCCCN1CCCC1 [Compound 153]	1 to 10	1 to 10
COc1ccc(Nc2nccc(N3CCNc4ccccc4C3)n2)cc1OCCCN1CCCC1 [Compound 154]	> 10	1 to 10
COc1ccc(Nc2nccc(N3CCc4cn[nH]c4C3)n2)cc1OCCCN1CCCC1 [Compound 155]	> 10	1 to 10
COc1ccc(Nc2nccc(N3CCc4ncncc4C3)n2)cc1OCCCN1CCCC1 [Compound 156]	1 to 10	1 to 10
COc1ccc(Nc2ccnc(OCC3CCN(C(C)=O)CC3)c2)cc1OCCCN1CCCC1 [Compound 157]	1 to 10	1 to 10
COc1ccc(N(C)c2nccc(NCC3CCN(C(C)=O)CC3)n2)cc1OCCCN1CCCC1 [Compound 158]	> 10	> 10
COc1ccc(Nc2nccc(NCC3CCN(C)CC3)n2)cc1OCCCNc1ccccc1 [Compound 159]	> 10	> 10

SMILES	IC50 [1] [µM]	IC50 [2] [µM]
COc1ccc(Nc2nccc(NCC3CCN(C(C)=O)CC3)n2)cc1OCCCNc1ccccc1 [Compound 160]	> 10	> 10
COc1ccc(Nc2nccc(N3CCC(NC(C)=O)CC3)n2)cc1OCCCN1CCCC1 [Compound 161]	> 10	> 10
COc1ccc(Nc2nccc(N3CCN(S(C)(=O)=O)CC3)n2)cc1OCCCN1CCCC1 [Compound 162]	> 10	> 10
COc1ccc(Nc2cc(N(C)CC3CCN(C(C)=O)CC3)ccn2)cc1OCCCN1CCCC1 [Compound 163]	> 10	> 10
COc1ccc(Nc2nccc(NCc3ccc4[nH]ncc4c3)n2)cc1OCCCN1CCCC1 [Compound 164]	> 10	> 10
COc1ccc(Nc2nccc(NCc3ccc(=O)[nH]c3)n2)cc1OCCCN1CCCC1 [Compound 165]	0.1 to 1	0.1 to 1
COc1ccc(Nc2nccc(NCC3CCN(C(C)=O)CC3)n2)cc1OCCC(=O)N1CCCC1 [Compound 166]	> 10	> 10
COc1ccc(Nc2nccc(NCCc3ccccn3)n2)cc1OCCCN1CCCC1 [Compound 167]	0.1 to 1	0.1 to 1
COc1ccc(Nc2nccc(N3CCN(c4ccccn4)CC3)n2)cc1OCCCN1CCCC1 [Compound 168]	> 10	> 10
COc1ccc(Nc2nccc(N3CCS(=O)(=O)CC3)n2)cc1OCCCN1CCCC1 [Compound 169]	> 10	> 10
COc1ccc(Nc2nccc(N3CC(C(=O)N(C)C)C3)n2)cc1OCCCN1CCCC1 [Compound 170]	> 10	> 10
COc1ccc(Nc2nccc(N(C)C)n2)cc1OCCCN1CCCC1 [Compound 171]	1 to 10	1 to 10
COc1ccc(Nc2nccc(N(C)CC3CCN(C(C)=O)CC3)n2)cc1OCCCN1CCCC1 [Compound 172]	1 to 10	1 to 10
COc1ccc(Nc2cc(OCC3CCN(C(C)=O)CC3)ccn2)cc1OCCCN1CCCC1 [Compound 173]	1 to 10	1 to 10
COc1ccc(Nc2nccc(C)n2)cc1OCCCN1CCCC1 [Compound 174]	> 10	> 10
COc1ccc(Nc2nc(C)cc(C)n2)cc1OCCCN1CCCC1 [Compound 175]	> 10	> 10
CNc1cccc(Nc2ccc(OC)c(OCCCN3CCCC3)c2)n1 [Compound 176]	> 10	> 10
COCCN(C)c1ccnc(Nc2ccc(OC)c(OCCCN3CCCC3)c2)n1 [Compound 177]	> 10	1 to 10
COc1ccc(Nc2nccc(NCCC3CCOCC3)n2)cc1OCCCN1CCCC1 [Compound 178]	0.1 to 1	0.1 to 1
COc1ccc(Nc2nccc(N3CC(C(N)=O)C3)n2)cc1OCCCN1CCCC1 [Compound 179]	> 10	> 10
COc1ccc(Nc2nccc(-n3cc(C)cn3)n2)cc1OCCCN1CCCC1 [Compound 180]	> 10	> 10
COc1ccc(Nc2ncc(CO)cn2)cc1OCCCN1CCCC1 [Compound 181]	> 10	> 10
COc1cnc(Nc2cc(NCC3CCN(C(C)=O)CC3)ccn2)cc1OCCCN1CCCC1 [Compound 182]	0.1 to 1	0.1 to 1
COc1ccc(Nc2nccc(NCC3CCN(C(C)=O)CC3)n2)cc1OCC(C)CN1CCCC1 (stereo not drawn) [Compound 183]	1 to 10	1 to 10
COc1ccc(Nc2cncc(NCC3CCN(C(C)=O)CC3)c2)cc1OCCCN1CCCC1 [Compound 184]	> 10	> 10
